Reference: PubChem BioAssay (NCI)
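Values below derive from 48-hour exposures of cells grown in 96-well plates, with endpoints linearly interpolated between the two concentrations bracketing the appropriate inhibition level. The concentration for full growth arrest is given as TGI.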

Columns and labels:
Experiment in all cases: NCI-60 cell line screen, 48 h
HL-60(TB) leukemia = system: HL-60(TB) leukemia
HOP-92 NSCLC = system: HOP-92 NSCLC
A498 renal = system: A498 renal
ACHN renal = system: ACHN renal
SF-539 CNS = system: SF-539 CNS
UACC-62 melanoma = system: UACC-62 melanoma
HCC-2998 colon = system: HCC-2998 colon
OVCAR-8 ovarian = system: OVCAR-8 ovarian
SR leukemia = system: SR leukemia
SK-MEL-5 melanoma = system: SK-MEL-5 melanoma

Compound | TGI (HL-60(TB) leukemia) [µM] | TGI (HOP-92 NSCLC) [µM] | TGI (A498 renal) [µM] | TGI (ACHN renal) [µM] | TGI (SF-539 CNS) [µM] | TGI (UACC-62 melanoma) [µM] | TGI (HCC-2998 colon) [µM] | TGI (OVCAR-8 ovarian) [µM] | TGI (SR leukemia) [µM] | TGI (SK-MEL-5 melanoma) [µM]
CN(NC(=O)/C(=C/c1ccc(O)cc1)NC(=O)c1ccccc1)c1ccnc2cc(Cl)ccc12 | 5.84 | 32.2 | 32.4 | 33 | 43.3 | 31.8 | 33.3 | 47 | 10.4 | 37.5
COc1cc(/C=C2\C[C@H]3[C@@H]4CC=C5C[C@@H](N6CCCC6)CC[C@]5(C)[C@H]4CC[C@]3(C)[C@H]2O)cc(OC)c1OC | 21.9 | 25 | 30.2 | 29.3 | 32.2 | 32.7 | 20.7 | 23.4 | > 100 | 30
Oc1ccc2c(c1)-c1c(c3cc(O)ccc3n1CCN1CCOCC1)CC2 | 49.3 | > 100 | 60 | > 100 | 76 | 32.9 | 32.6 | 86.8 | 61.8 | 30.6
O=C(CCc1cccc(O)c1)NCCc1cccc(O)c1 | > 100 | > 100 | > 100 | > 100 | > 100 | > 100 | > 100 | > 100 | > 100 | > 100
C=CCNC1=C2C[C@@H](C)C[C@@H](OC)C(OC(=O)CCCN(C)C)[C@H](C)/C=C(\C)[C@@H](OC(N)=O)[C@H](OC)/C=C\C=C(/C)C(=O)NC(=CC1=O)C2=O (stereo partly specified) | 20.2 | 34.9 | 26.9 | 20.6 | 19.3 | 26 | 17.6 | 16 | 8.97 | 8.73
CC(=O)Nc1ccc(S(=O)(=O)Nc2nnc(S(N)(=O)=O)s2)cc1 | > 100 | > 100 | > 100 | > 100 | > 100 | > 100 | > 100 | – | > 100 | –
COCn1c(C)c(C)c2c(=O)oc(=O)[nH]c21 | > 100 | > 100 | > 100 | > 100 | > 100 | > 100 | > 100 | > 100 | > 100 | > 100
COc1c2occc2c(OC)c2c(=O)c(S(=O)(=O)NC(=O)Nc3ccc(Cl)cc3)coc12 | > 10 | > 10 | > 10 | > 10 | > 10 | > 10 | > 10 | > 10 | > 10 | > 10
CSC1=Nc2ccccc2-c2nc(-c3ccccc3)cc(-c3ccccc3)c2C1 | > 100 | – | > 100 | 41.8 | > 100 | 60.5 | > 100 | > 100 | > 100 | 75.1
O=c1c2ccccc2oc2c1ccc1ncccc12 | > 100 | 59.3 | 25 | 23.1 | 53.3 | 73.6 | > 100 | > 100 | > 100 | 28
Nn1c(Cc2ccc(Cl)cc2)n[nH]c1=O | > 100 | > 100 | > 100 | > 100 | > 100 | > 100 | > 100 | > 100 | > 100 | > 100
COC(=O)c1c(OC(C)=O)ccc2c1c1c(OC(C)=O)c3ccccc3c(OC(C)=O)c1n2Cc1cc(OC)cc(OC)c1 | > 100 | 5.35 | 89.8 | > 100 | 9.27 | > 100 | 10.9 | > 100 | > 100 | 24.3
O=C(O)Cc1ccc(Oc2nc3ccccc3nc2-c2cccs2)cc1 | > 100 | > 100 | 84.7 | > 100 | > 100 | > 100 | > 100 | > 100 | > 100 | > 100
CO/C(=N\N=C\c1ccc(Cl)cc1)c1ccncc1 | > 100 | > 100 | > 100 | > 100 | > 100 | > 100 | > 100 | > 100 | > 100 | > 100
CN(Cc1c2ccccc2cc2ccccc12)S(=O)(=O)c1ccc(-c2c3nc(c(-c4ccc(S(=O)(=O)N(C)Cc5c6ccccc6cc6ccccc56)cc4)c4ccc([nH]4)c(-c4ccc(S(=O)(=O)N(C)Cc5c6ccccc6cc6ccccc56)cc4)c4nc(c(-c5ccc(S(=O)(=O)N(C)Cc6c7ccccc7cc7ccccc67)cc5)c5ccc2[nH]5)C=C4)C=C3)cc1 | > 100 | 83.4 | > 100 | > 100 | > 100 | > 100 | > 100 | > 100 | > 100 | > 100
CC(C)OC(=O)c1ccc(NCC2=CC(=O)C=CC2=O)cc1Cl | > 21.8 | 14.4 | 43.2 | 16 | 37.5 | 30.1 | 32.8 | > 51.4 | 8.22 | > 57.6
CCOC(=O)c1c(SC(=O)c2cc(OC)c(OC)c(OC)c2)n(-c2ccccc2)c(=S)n(-c2ccccc2)c1=O | > 100 | > 100 | > 100 | > 100 | > 100 | > 100 | > 100 | > 100 | > 100 | –
